Assay results as given in US11806393B2, “Flavivirus peptide sequences, epitopes, and methods and uses thereof” (priority 2017, dated 2023).

How the values were obtained:
Type in all cases: cell-based, mouse
[1] = test system: CD8+ T cells; assay: IFNγ ELISPOT, ZIKV-infected Ifnar-/- HLA-B*0702 transgenic mice; details: HLA-B*0702 mice; for SFC/10^6 CD8+ T cells, FSS13025: 7 days after 1×10^2 FFU ZIKV FSS13025; for SFC/10^6 CD8+ T cells, MR766: 7 days after 1×10^2 FFU ZIKV MR766; for immunodominance in IFNγ ELISPOT: immunodominant: >500 SFCs/10^6 CD8+ T cells, shared by both ZIKV strains
In short: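 Mice were infected retro-orbitally with 1×10^2 FFU ZIKV (FSS13025 or MR766), and splenic CD8+ T cells were isolated 7 days later. 2×10^5 cells were stimulated 20 h with 1×10^5 LPS-blasts loaded with 10 μg peptide, in triplicate. Output is SFC/10^6 CD8+ T cells; positive if net >20 and stimulation index >2.0.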

[2] = test system: CD8+ T cells; assay: IFNγ ELISPOT, DENV2 S221-infected Ifnar-/- HLA-B*0702 transgenic mice; details: HLA-B*0702 mice, 7 days after 2×10^4 FFU DENV2 S221
Experimental: (§1) Two ZIKV strains, MR766 (Uganda, 1947) and FSS13025 (Cambodia, 2010), were obtained from the World Reference Center for Emerging Viruses and Arboviruses (WRCEVA). The mouse-adapted DENV2 strain S221 is a triple-plaque purified clone derived from DENV2 D2S1038. Both ZIKV and DENV2 were amplified in C6/36 mosquito cells, and viral titers were measured using baby hamster kidney (BHK)-21 cell-based focus forming assay (FFA). For epitope screening, 5-week old mice (female or male) were infected retro-orbitally (R.O.) with either 1×102 FFU of ZIKV FSS13025 or ZIKV MR766, or 2×10^4 FFU of DENV2 S221 in 200 μl 10% FBS/PBS. Seven days after infection, CD8^+ T cells were isolated from splenocytes and used for ELISPOT assay, while the splenocytes were directly used for ICS assay. Additionally, 5-week old mice were inoculated I.P. with 2×10^3 FFU of DENV2 S221 for 4 weeks.
CD8^+ T cells were isolated from splenocytes using magnetic bead positive selection (Miltenyi Biotec, Germany) 7 days after virus infection. 2×10^5 CD8^+ T cells were stimulated with 1×10^5 LPS-blasts loaded with 10 μg of individual peptide in 96-well flat-bottom plates (IMMOBILON™-P; Millipore, Bedford, Mass.) that were coated with anti-IFNγ mAb (clone AN18; Mabtech, Stockholm, Sweden) in triplicate. Concanavalin A (ConA) was used as positive control. After 20 hours of incubation, biotinylated anti-mouse IFNγ mAb (R4-6A2; Mabtech), followed by ABC peroxidase (Vector Laboratories, Burlingame, Calif., USA) and then 3-amino-9-ethylcarbazole (Sigma-Aldrich, St. Louis, Mo., USA) were added into the wells. […] A peptide inducing a magnitude of >500 SFCs/10^6 CD8^+ T cells was considered as an immunodominant peptide.
(§2) The following results are with respect to FIG. 14A and FIG. 14B, where Ifnar^−/− HLA-B*0702 transgenic mice were infected R.O. with 2×10^4 FFU of DENV2 strain S221 for 7 days. CD8^+ T cells isolated from splenocytes were stimulated with each of the 37 ZIKV epitopes identified via IFNγELISPOT to perform (FIG. 14A) IFNγELISPOT and (FIG. 14B) ICS assay. Data represent the average of two independent IFNγELISPOT experiments and two independent ICS experiments (n=7 mice) and are expressed as mean±SEM. Dotted line corresponds to the cutoff value. *, P<0.05.

[3] = test system: CD8+ T cells; assay: IFNγ ICS, DENV2 S221-infected Ifnar-/- HLA-B*0702 transgenic mice; details: HLA-B*0702 mice; for % IFNγ+ CD8+ T cells, S221: 7 days after DENV2 S221, ICS; for ZIKV/DENV cross-reactivity in DENV2-infected mice (IFNγ ELISPOT and IFNγ ICS): DENV2 S221, 7 days
Experimental: as §1
Spleens were harvested from virus-infected, mock-immunized, or peptide-immunized mice. 1×10^6 splenocytes were plated in each well of 96-well U-bottom plates and stimulated with individual peptide (10 μg crude peptide or 1 μg pure peptide per well) for 6 hours. Five hours before the end of incubation, Brefeldin A (GolgiPlug; BD Biosciences) and PE-conjugated anti CD107a mAb (clone 1D4B, eBioscience) were added to the cells. Splenocytes stimulated with PMA-ionomycin were used as the positive control, while cells without any stimulation were the negative control. […] Samples were run using an LSR™ II (BD Biosciences) and analyzed using FLOWJO™ software X 10.0.7 (Tree Star, Ashland, Oreg.).
as §2

[4] = test system: CD8+ T cells; assay: ICS, DENV2-immune Ifnar-/- HLA-B*0702 mice challenged with ZIKV FSS13025; details: day 3 after ZIKV FSS13025 challenge
Experimental: as §1
Spleens were harvested from virus-infected, mock-immunized, or peptide-immunized mice. 1×10^6 splenocytes were plated in each well of 96-well U-bottom plates and stimulated with individual peptide (10 μg crude peptide or 1 μg pure peptide per well) for 6 hours. Five hours before the end of incubation, Brefeldin A (GolgiPlug; BD Biosciences) and PE-conjugated anti CD107a mAb (clone 1D4B, eBioscience) were added to the cells. Splenocytes stimulated with PMA-ionomycin were used as the positive control, while cells without any stimulation were the negative control. After incubation, cells were first stained with PERCPCY™ 5.5-conjugated anti-CD3 mAb (Clone 145-2C11, TONBO), PE-CY7™-conjugated anti-CD8 mAb (clone 53-67, BD Biosciences), EFLUOR™ 450-conjugated anti-CD44 mAb (clone IM7, eBioscience), and APC eFluor 780-conjugated anti-CD62L mAb (clone Mel-14, eBioscience). Cells were then fixed and permeabilized using CYTOFIX/CYTOPERM™ solution (BD Biosciences), followed by staining with FITC-conjugated anti-IFNγ mAb (clone XMG 1.2, TONBO) and APC-conjugated anti-TNFα mAb (clone MP6-XT22, eBioscience). Samples were run using an LSR™ II (BD Biosciences) and analyzed using FLOWJO™ software X 10.0.7 (Tree Star, Ashland, Oreg.).
The following results are with respect to FIG. 11 to FIG. 11E, where Ifnar^−/− HLA-B*0702 transgenic mice were inoculated I.P. with 2×10^3 FFU of DENV2 strain S221 for 4 weeks. Naive mice (n=5) and DENV2 strain S221-immune mice (n=5) were challenged R.O. with 1×10^4 FU of ZIKV FSS13025 for three days, and the percentages of peptide-specific IFNγ^+ and/or TNFα^+ CD8^+ T cells were detected by ICS (FIG. 11A and FIG. 11B). […] Data were expressed as mean±SEM. *, P<0.05; **, P<0.01; Two-tailed ann-Whitney test. Black “*” indicates ZIKV-specific response while bold “*” represents ZIKV/DENV cross-reactive response. All positive peptides were grouped according the ZIKV specificity of immune response (FIG. 11E). Numbers in parentheses indicate the number of positive peptides in this group.

| Sequence | SFC/10^6 CD8+ T cells, FSS13025 [1] [SFC/10^6 CD8+ T cells] | SFC/10^6 CD8+ T cells, MR766 [1] [SFC/10^6 CD8+ T cells] | immunodominance in IFNγ ELISPOT [1] | SFC/10^6 CD8+ T cells, S221 [2] [SFC/10^6 CD8+ T cells] | % IFNγ+ CD8+ T cells, S221 [3] | ZIKV/DENV cross-reactivity in DENV2-infected mice (IFNγ ELISPOT and IFNγ ICS) [3] | IFNγ and TNFα double-positive epitope-specific CD8+ T cells [4] | percentage of epitope-specific IFNγ-producing CD8+ T cells [4] [%] |
| --- | --- | --- | --- | --- | --- | --- | --- | --- |
| KPRWMDARV [FSS/MR-NS3574-582] | 969 | 1095 | immunodominant | 350 | (0.63%) | positive in both IFNγ ELISPOT and IFNγICS assays | double-positive with expression of both IFNγ and TNFα | 2.61±1.19 |
| RPALLVSFIF [FSS/MR-NS2A75-84] | 713 | 582 | immunodominant | 88 | (0.58%) | positive in both IFNγ ELISPOT and IFNγICS assays | double-positive with expression of both IFNγ and TNFα | 0.44±0.24 |
